Reference: publication PMC9516332 (Frontiers in Oncology, 2022)
Like-named read-outs stand apart in the source and are kept apart here.

Tested on: 134 cancer cell lines
Test: Cell viability assay (ATPlite, 72 hours), IC50 on cancer cell line panel

Question: For `COC(=O)N[C@@H](C)CNc1nccc(-c2cn(C(C)C)nc2-c2cc(Cl)cc(NS(C)(=O)=O)c2F)n1` [encorafenib], which IC50 (HEC-6, read-out: IC50 in cell proliferation assay, HEC-6 cell line (EGFR p.A289V)) is on record?
Answer: 1240 nM

Question: And the IC50 (Homo sapiens, 769-P, read-out: IC50 in cell proliferation assay, cell line 769-P)?
Answer: 1190 nM

Question: And the IC50 (Homo sapiens, 786-0, read-out: IC50 in cell proliferation assay, cell line 786-O)?
Answer: 1390 nM

Question: And the IC50 (Homo sapiens, A 172, read-out: IC50 in cell proliferation assay, cell line A-172)?
Answer: 1780 nM

Question: What about the IC50 (Homo sapiens, A204, read-out: IC50 in cell proliferation assay, cell line A-204) of the same compound?
Answer: 1050 nM

Question: And the IC50 (Homo sapiens, A498, read-out: IC50 in cell proliferation assay, cell line A-498)?
Answer: 527 nM

Question: What about the IC50 (Homo sapiens, A549, read-out: IC50 in cell proliferation assay, cell line A-549) of the same compound?
Answer: 1220 nM

Question: What about the IC50 (Homo sapiens, A704, read-out: IC50 in cell proliferation assay, cell line A-704) of the same compound?
Answer: 5460 nM

Question: What about the IC50 (Homo sapiens, A-375, read-out: IC50 in cell proliferation assay, cell line A-375 (BRAF p.V600E)) of the same compound?
Answer: 9 nM

Question: What about the IC50 (Homo sapiens, A-427, read-out: IC50 in cell proliferation assay, cell line A-427) of the same compound?
Answer: 840 nM

Question: What about the IC50 (Homo sapiens, ACHN, read-out: IC50 in cell proliferation assay, cell line ACHN) of the same compound?
Answer: 624 nM

Question: And the IC50 (Homo sapiens, AN3-CA, read-out: IC50 in cell proliferation assay, cell line AN3-CA (FGFR2 p.N549K))?
Answer: 623 nM

Question: What about the IC50 (Homo sapiens, ASPC1, read-out: IC50 in cell proliferation assay, cell line AsPC-1) of the same compound?
Answer: 2880 nM

Question: What about the IC50 (Homo sapiens, AU565, read-out: IC50 in cell proliferation assay, cell line AU565 (ERBB2 amplification)) of the same compound?
Answer: 421 nM

Question: What about the IC50 (Homo sapiens, BT-20, read-out: IC50 in cell proliferation assay, cell line BT-20) of the same compound?
Answer: > 31600 nM

Question: And the IC50 (Homo sapiens, BT-474, read-out: IC50 in cell proliferation assay, cell line BT-474 (ERBB2 amplification))?
Answer: > 31600 nM

Question: What about the IC50 (Homo sapiens, BT-549, read-out: IC50 in cell proliferation assay, cell line BT-549) of the same compound?
Answer: 1020 nM

Question: What about the IC50 (Homo sapiens, BXPC-3, read-out: IC50 in cell proliferation assay, cell line BxPC-3) of the same compound?
Answer: 408 nM

Question: And the IC50 (Homo sapiens, C-33-A, read-out: IC50 in cell proliferation assay, cell line C-33 A)?
Answer: 922 nM

Question: And the IC50 (Homo sapiens, CAL-27, read-out: IC50 in cell proliferation assay, cell line CAL-27)?
Answer: 6980 nM

Question: What about the IC50 (Homo sapiens, CCF-STTG1, read-out: IC50 in cell proliferation assay, cell line CCF-STTG1) of the same compound?
Answer: > 31600 nM

Question: And the IC50 (Homo sapiens, CCRF-CEM, read-out: IC50 in cell proliferation assay, cell line CCRF-CEM)?
Answer: > 31600 nM

Question: What about the IC50 (Homo sapiens, COLO 205, read-out: IC50 in cell proliferation assay, cell line COLO 205 (BRAF p.V600E)) of the same compound?
Answer: 3.32 nM

Question: What about the IC50 (Homo sapiens, COLO-829, read-out: IC50 in cell proliferation assay, cell line COLO 829 (BRAF p.V600E)) of the same compound?
Answer: 9 nM

Question: What about the IC50 (Homo sapiens, DLD-1, read-out: IC50 in cell proliferation assay, cell line DLD-1) of the same compound?
Answer: 1650 nM

Question: And the IC50 (Homo sapiens, DU-4475, read-out: IC50 in cell proliferation assay, cell line DU4475 (BRAF p.V600E))?
Answer: 8 nM

Question: What about the IC50 (Homo sapiens, Daoy, read-out: IC50 in cell proliferation assay, cell line Daoy) of the same compound?
Answer: > 31600 nM

Question: What about the IC50 (Homo sapiens, DoTc2-4510, read-out: IC50 in cell proliferation assay, cell line DoTc2 4510) of the same compound?
Answer: 3280 nM

Question: And the IC50 (Homo sapiens, EOL1, read-out: IC50 in cell proliferation assay, cell line EoL-1 (FIP1L1-PDGFRA))?
Answer: 2340 nM

Question: And the IC50 (Homo sapiens, FaDu, read-out: IC50 in cell proliferation assay, cell line FaDu)?
Answer: 964 nM

Question: And the IC50 (Homo sapiens, G-361, read-out: IC50 in cell proliferation assay, cell line G-361 (BRAF p.V600E))?
Answer: 13 nM

Question: What about the IC50 (Homo sapiens, HCC827, read-out: IC50 in cell proliferation assay, cell line HCC827 (EGFR exon19del)) of the same compound?
Answer: 893 nM

Question: And the IC50 (Homo sapiens, HCC4006, read-out: IC50 in cell proliferation assay, cell line HCC4006 (EGFR exon19del))?
Answer: > 31600 nM

Question: And the IC50 (Homo sapiens, HCT-15, read-out: IC50 in cell proliferation assay, cell line HCT 15)?
Answer: 2940 nM

Question: And the IC50 (Homo sapiens, HCT-116, read-out: IC50 in cell proliferation assay, cell line HCT 116)?
Answer: 1150 nM

Question: What about the IC50 (Homo sapiens, HEC-1, read-out: IC50 in cell proliferation assay, HEC-1 cell line) of the same compound?
Answer: 1570 nM

Question: And the IC50 (Homo sapiens, HEC-1B, read-out: IC50 in cell proliferation assay, HEC-1-B cell line (EGFR p.A864V))?
Answer: 2100 nM

Question: And the IC50 (Homo sapiens, HL-60, read-out: IC50 in cell proliferation assay, HL-60 cell line)?
Answer: 1800 nM

Question: And the IC50 (Homo sapiens, HT, read-out: IC50 in cell proliferation assay, HT cell line)?
Answer: > 31600 nM

Question: What about the IC50 (Homo sapiens, HT-1080, read-out: IC50 in cell proliferation assay, HT-1080 cell line) of the same compound?
Answer: 381 nM

Question: And the IC50 (Homo sapiens, Hs746T, read-out: IC50 in cell proliferation assay, Hs 746.T cell line (MET exon14skip + amplification))?
Answer: 1120 nM

Question: And the IC50 (Homo sapiens, Hs-578T, read-out: IC50 in cell proliferation assay, Hs 578T cell line)?
Answer: 1030 nM

Question: What about the IC50 (Homo sapiens, HuTu80, read-out: IC50 in cell proliferation assay, HuTu 80 cell line) of the same compound?
Answer: 1120 nM

Question: What about the IC50 (Homo sapiens, J82, read-out: IC50 in cell proliferation assay, J82 cell line) of the same compound?
Answer: 949 nM

Question: What about the IC50 (Homo sapiens, Jurkat E6.1, read-out: IC50 in cell proliferation assay, Jurkat E6.1 cell line) of the same compound?
Answer: 1040 nM

Question: What about the IC50 (Homo sapiens, K562, read-out: IC50 in cell proliferation assay, K-562 cell line) of the same compound?
Answer: 27600 nM

Question: And the IC50 (Homo sapiens, KATO III, read-out: IC50 in cell proliferation assay, KATO III cell line (FGFR2 amplification))?
Answer: 1510 nM

Question: What about the IC50 (Homo sapiens, KG-1, read-out: IC50 in cell proliferation assay, KG-1 cell line (FGFR1OP2-FGFR1)) of the same compound?
Answer: 1440 nM

Question: What about the IC50 (Homo sapiens, KLE, read-out: IC50 in cell proliferation assay, KLE cell line) of the same compound?
Answer: 822 nM

Question: And the IC50 (Homo sapiens, KMS-11, read-out: IC50 in cell proliferation assay, KMS-11 cell line (FGFR3 p.Y373C))?
Answer: 3390 nM

Question: And the IC50 (Homo sapiens, KU812, read-out: IC50 in cell proliferation assay, Ku812 cell line)?
Answer: 2570 nM

Question: What about the IC50 (Homo sapiens, Kasumi 1, read-out: IC50 in cell proliferation assay, Kasumi-1 cell line (KIT p.N822K)) of the same compound?
Answer: 3020 nM

Question: What about the IC50 (Homo sapiens, LC-2-ad, read-out: IC50 in cell proliferation assay, LC-2/ad cell line (CCDC6-RET)) of the same compound?
Answer: 1530 nM

Question: And the IC50 (Homo sapiens, LNCaP-Clone-FGC, read-out: IC50 in cell proliferation assay, LNCaP clone FGC cell line)?
Answer: 2150 nM

Question: What about the IC50 (Homo sapiens, LS174T, read-out: IC50 in cell proliferation assay, LS174T cell line) of the same compound?
Answer: 1700 nM

Question: And the IC50 (Homo sapiens, LS-411N, read-out: IC50 in cell proliferation assay, LS411N cell line (BRAF p.V600E))?
Answer: 6 nM

Question: What about the IC50 (Homo sapiens, LoVo, read-out: IC50 in cell proliferation assay, LoVo cell line) of the same compound?
Answer: 2500 nM

Question: What about the IC50 (Homo sapiens, MCF7, read-out: IC50 in cell proliferation assay, MCF-7 cell line) of the same compound?
Answer: > 31600 nM

Question: What about the IC50 (Homo sapiens, MDA-MB-231, read-out: IC50 in cell proliferation assay, MDA-MB-231 cell line) of the same compound?
Answer: 2420 nM

Question: What about the IC50 (Homo sapiens, MDA-MB-453, read-out: IC50 in cell proliferation assay, MDA-MB-453 cell line) of the same compound?
Answer: > 31600 nM

Question: And the IC50 (Homo sapiens, MDA-MB-468, read-out: IC50 in cell proliferation assay, MDA-MB-468 cell line)?
Answer: > 31600 nM

Question: And the IC50 (Homo sapiens, MG-63, read-out: IC50 in cell proliferation assay, MG-63 cell line)?
Answer: > 31600 nM

Question: What about the IC50 (Homo sapiens, MIA PaCa-2, read-out: IC50 in cell proliferation assay, MIA PaCa-2 cell line) of the same compound?
Answer: 1240 nM

Question: What about the IC50 (Homo sapiens, MKN-45, read-out: IC50 in cell proliferation assay, MKN45 cell line (MET amplification)) of the same compound?
Answer: 3810 nM

Question: And the IC50 (Homo sapiens, MOLM-13, read-out: IC50 in cell proliferation assay, MOLM-13 cell line (FLT3 ITD))?
Answer: 1070 nM

Question: And the IC50 (Homo sapiens, MOLT-4, read-out: IC50 in cell proliferation assay, MOLT-4 cell line)?
Answer: 1670 nM

Question: What about the IC50 (Homo sapiens, MV4-11, read-out: IC50 in cell proliferation assay, MV4-11 cell line (FLT3 ITD)) of the same compound?
Answer: 2280 nM

Question: And the IC50 (Homo sapiens, MeWo, read-out: IC50 in cell proliferation assay, MeWo cell line)?
Answer: 1000 nM

Question: What about the IC50 (Homo sapiens, NCCIT, read-out: IC50 in cell proliferation assay, NCC-IT cell line) of the same compound?
Answer: 1040 nM
